Reference: paper PMC3466778 (Biochemistry, 2012)

Target: T1, KcsA (Streptomyces lividans, UniProt P0A334)
T1 sequence (P0A334 1-160): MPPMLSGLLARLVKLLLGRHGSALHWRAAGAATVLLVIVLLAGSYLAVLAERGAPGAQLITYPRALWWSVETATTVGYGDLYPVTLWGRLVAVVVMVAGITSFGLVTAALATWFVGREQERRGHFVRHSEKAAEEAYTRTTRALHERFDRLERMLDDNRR
Experiment: fluorescence titration
Type: binding

Kd: 0.47 ± 0.1 µM
Structure (SMILES): CN(C)c1cccc2c(S(=O)(=O)NCCCCCCCCCCC(=O)O)cccc12 [Dauda]
